# Laboratory results taken from ChEMBL document CHEMBL5614463, “Discovery of Imidazo[1,2-a]pyrazine Derivatives as Potent ENPP1 Inhibitors” (J Med Chem, 2024).
# Key:
# [1] = molecular target: Autotaxin (Mus musculus, UniProt Q9R1E6); assay: Inhibition of N-terminal recombinant mouse ENPP2 […] extracted from HEK293F cells using p-Nph-5'-TMP as substrate by absorbance based analysis; type: cell-free
# [2] = molecular target: T1, Ectonucleotide pyrophosphatase/phosphodiesterase family member 3 (Homo sapiens, UniProt O14638); assay: Inhibition of recombinant human ENPP3 using p-Nph-5'-TMP as substrate by absorbance based analysis
# T1 sequence (O14638 whole entry): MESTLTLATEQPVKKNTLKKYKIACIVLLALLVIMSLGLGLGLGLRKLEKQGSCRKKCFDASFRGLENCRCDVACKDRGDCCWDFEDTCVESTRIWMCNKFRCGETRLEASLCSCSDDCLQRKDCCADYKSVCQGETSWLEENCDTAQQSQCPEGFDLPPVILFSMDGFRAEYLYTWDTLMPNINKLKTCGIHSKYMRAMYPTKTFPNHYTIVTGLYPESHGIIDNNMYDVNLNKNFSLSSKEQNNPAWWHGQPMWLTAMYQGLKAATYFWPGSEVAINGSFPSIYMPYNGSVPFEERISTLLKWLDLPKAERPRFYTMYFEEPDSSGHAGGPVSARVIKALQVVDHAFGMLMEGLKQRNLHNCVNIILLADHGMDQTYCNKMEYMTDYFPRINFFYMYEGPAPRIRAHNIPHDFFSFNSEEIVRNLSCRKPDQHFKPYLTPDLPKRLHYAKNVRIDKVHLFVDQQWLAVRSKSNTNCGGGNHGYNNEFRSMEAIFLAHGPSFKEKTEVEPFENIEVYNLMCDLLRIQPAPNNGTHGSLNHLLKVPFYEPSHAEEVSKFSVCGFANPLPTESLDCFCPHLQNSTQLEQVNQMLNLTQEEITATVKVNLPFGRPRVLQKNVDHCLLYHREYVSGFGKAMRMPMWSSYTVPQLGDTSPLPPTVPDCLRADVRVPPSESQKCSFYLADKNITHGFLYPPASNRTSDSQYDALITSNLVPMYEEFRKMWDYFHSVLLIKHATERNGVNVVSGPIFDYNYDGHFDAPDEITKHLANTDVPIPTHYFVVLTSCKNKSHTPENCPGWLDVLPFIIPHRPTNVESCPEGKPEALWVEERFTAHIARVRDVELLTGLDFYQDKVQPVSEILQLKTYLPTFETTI
IC50 [1],IC50 [2],Compound
> 10 µM,2.52 µM,COc1cccc(F)c1-c1nc(C(=O)Nc2cc(F)ccc2N2CCC(NS(N)(=O)=O)CC2)cn2ccnc12
> 10 µM,1.27 µM,COc1ccc2c(-c3ccc(CNS(N)(=O)=O)cc3)ccnc2c1
